How the values were obtained:
Kv7.4 [1] = target: T1, Kv7.4 (Homo sapiens, UniProt P56696); assay: inside-out patch clamp, single-channel NPo; assay type: cell-based; conditions: room temperature; activator applied to excised patch, no added Gβγ; unreliable: saturation not reached, sigmoidal fit of pooled patches
T1 construct: gene KCNQ4; full-length channel, homomer, stably expressed in HEK293 cells (line a gift from the University of Copenhagen)
T1 sequence (P56696 1-695): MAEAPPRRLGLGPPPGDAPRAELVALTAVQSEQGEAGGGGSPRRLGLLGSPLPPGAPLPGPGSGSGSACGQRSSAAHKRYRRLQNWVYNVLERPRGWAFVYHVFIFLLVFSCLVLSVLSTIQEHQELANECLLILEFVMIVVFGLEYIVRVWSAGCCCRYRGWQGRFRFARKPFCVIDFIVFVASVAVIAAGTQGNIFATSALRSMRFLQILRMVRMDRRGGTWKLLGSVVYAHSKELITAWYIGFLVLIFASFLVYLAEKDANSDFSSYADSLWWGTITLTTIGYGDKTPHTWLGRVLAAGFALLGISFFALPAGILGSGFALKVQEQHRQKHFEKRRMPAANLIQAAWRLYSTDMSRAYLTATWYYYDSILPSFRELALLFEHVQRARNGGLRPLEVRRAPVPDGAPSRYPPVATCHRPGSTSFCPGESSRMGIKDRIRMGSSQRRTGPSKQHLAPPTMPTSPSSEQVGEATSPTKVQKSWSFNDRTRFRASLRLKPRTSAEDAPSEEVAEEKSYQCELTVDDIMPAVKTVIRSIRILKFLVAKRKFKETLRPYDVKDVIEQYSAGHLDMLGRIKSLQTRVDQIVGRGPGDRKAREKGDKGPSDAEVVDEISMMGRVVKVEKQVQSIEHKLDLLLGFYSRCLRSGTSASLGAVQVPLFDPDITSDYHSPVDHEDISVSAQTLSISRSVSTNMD

Kv7.4 [2] = target: T1, Kv7.4; assay: whole-cell patch clamp; assay type: cell-based; conditions: room temperature; opener, concentration not given; common approximate value for three openers
Kv7.4 channel = Kv7.4 channel (UniProt P56696)

**Q.** With PIP2 as the compound, how does the half-maximal stimulation (Kv7.4 [1]) read?
**A.** Its half-maximal stimulation is ~ 117 μM.

**Q.** With NS15370 as the compound, how does the “% increase of current at +20 mV” value (Kv7.4 [2]) read?
**A.** Its value is ~ 40%.

**Q.** For `CCOC(=O)Nc1ccc(NCc2ccc(F)cc2)cc1N` [Retigabine], which “% increase of current at +20 mV” value (Kv7.4 [2]) is on record?
**A.** The value was ~ 40%.

**Q.** For “G-protein βγ subunits from bovine brain (from UniProt P62871 1-340; P63212 1-71) (complex)”, which half maximal stimulation of Kv7.4 channel activity, inside-out excised patches, bath application of Gβγ (0.4–50 ng/ml) (Kv7.4 channel) is on record?
**A.** Its half maximal stimulation of Kv7.4 channel activity, inside-out excised patches, bath application of Gβγ (0.4–50 ng/ml) is 8.1 ng/mL.

**Q.** And the increase of whole-cell Kv7.4 current amplitude within 5 min of rupture, intracellular perfusion of active Gβγ (250 ng/ml), control cells (Kv7.4 channel)?
**A.** Its increase of whole-cell Kv7.4 current amplitude within 5 min of rupture, intracellular perfusion of active Gβγ (250 ng/ml), control cells is 70%.
